{"source": "paper PMC5714945", "about": "“A homologue of the Parkinson’s disease-associated protein LRRK2 undergoes a monomer-dimer transition during GTP turnover” (Nature Communications, 2017)", "format_in_all_cases": "binding", "key": {"CtRoc-COR [1]": {"target": "T1, CtRoc-COR (Chlorobaculum tepidum, UniProt Q8KC98)", "T1 construct": "gene CT1526; Roc-COR domains, residues 412-946, N-terminal His-tag (pProEX), E. coli BL21(DE3); dimer nucleotide-free, about 65 kDa monomer", "T1 sequence (Q8KC98 412-946)": "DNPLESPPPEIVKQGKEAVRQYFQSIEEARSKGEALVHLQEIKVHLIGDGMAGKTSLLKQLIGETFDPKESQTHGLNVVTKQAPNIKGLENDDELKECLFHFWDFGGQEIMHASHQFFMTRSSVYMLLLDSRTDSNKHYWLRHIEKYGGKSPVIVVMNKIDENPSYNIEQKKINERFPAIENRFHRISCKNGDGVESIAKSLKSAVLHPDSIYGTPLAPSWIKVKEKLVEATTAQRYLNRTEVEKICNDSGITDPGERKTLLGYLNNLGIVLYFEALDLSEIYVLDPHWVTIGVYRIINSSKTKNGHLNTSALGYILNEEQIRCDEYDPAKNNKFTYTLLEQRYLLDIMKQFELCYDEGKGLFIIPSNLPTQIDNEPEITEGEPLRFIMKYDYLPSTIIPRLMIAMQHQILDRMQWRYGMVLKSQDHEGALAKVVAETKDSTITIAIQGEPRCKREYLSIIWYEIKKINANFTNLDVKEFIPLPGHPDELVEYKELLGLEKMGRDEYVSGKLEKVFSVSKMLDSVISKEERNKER", "test": "SEC-SAXS, SEC-MALS, native MS, SV-AUC (oligomeric shift)", "conditions": "pre-incubated with 1 mM (SAXS, MALS), pH 7.5, 5 mM MgCl2"}, "CtRoco [2]": {"target": "T2, CtRoco (Chlorobaculum tepidum, UniProt Q8KC98)", "T2 construct": "gene CT1526; full length, residues 1-1102, N-terminal His-tag (pProEX), E. coli BL21(DE3); dimer nucleotide-free, monomer/dimer equilibrium with GppNHp", "T2 sequence (Q8KC98 1-1102)": "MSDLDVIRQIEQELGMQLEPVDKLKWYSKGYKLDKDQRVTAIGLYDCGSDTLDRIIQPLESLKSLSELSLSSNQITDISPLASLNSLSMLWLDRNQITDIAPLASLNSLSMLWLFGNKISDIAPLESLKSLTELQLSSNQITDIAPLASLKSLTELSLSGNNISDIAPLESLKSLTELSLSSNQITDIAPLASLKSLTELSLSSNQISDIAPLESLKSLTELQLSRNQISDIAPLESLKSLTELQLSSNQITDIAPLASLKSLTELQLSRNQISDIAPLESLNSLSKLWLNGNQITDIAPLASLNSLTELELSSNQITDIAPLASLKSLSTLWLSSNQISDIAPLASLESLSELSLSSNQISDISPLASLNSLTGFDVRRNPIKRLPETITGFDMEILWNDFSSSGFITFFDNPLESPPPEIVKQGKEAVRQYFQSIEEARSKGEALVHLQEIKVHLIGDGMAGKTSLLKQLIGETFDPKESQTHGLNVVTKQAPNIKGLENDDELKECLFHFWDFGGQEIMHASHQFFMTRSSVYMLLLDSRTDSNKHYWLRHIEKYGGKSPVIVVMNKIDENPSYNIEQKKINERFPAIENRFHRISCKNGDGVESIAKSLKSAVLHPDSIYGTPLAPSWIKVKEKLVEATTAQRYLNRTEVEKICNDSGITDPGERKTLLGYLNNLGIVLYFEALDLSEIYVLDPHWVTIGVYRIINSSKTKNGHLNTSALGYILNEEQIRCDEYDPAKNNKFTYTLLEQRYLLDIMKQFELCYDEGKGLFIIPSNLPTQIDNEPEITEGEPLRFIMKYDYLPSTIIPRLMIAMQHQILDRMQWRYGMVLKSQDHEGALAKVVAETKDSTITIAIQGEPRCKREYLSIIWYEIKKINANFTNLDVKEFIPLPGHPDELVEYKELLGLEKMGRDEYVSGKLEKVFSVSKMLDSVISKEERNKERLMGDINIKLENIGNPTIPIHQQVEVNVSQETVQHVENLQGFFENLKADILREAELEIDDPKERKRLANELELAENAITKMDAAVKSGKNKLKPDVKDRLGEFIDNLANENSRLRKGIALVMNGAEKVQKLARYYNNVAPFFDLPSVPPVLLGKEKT", "test": "SEC-SAXS, SEC-MALS, native MS, AUC, negative-stain EM (oligomeric shift)", "conditions": "pre-incubated with 1 mM (SAXS, MALS, EM), pH 7.5, 5 mM MgCl2"}, "CtRoco [3]": {"target": "T2, CtRoco", "test": "SEC-SAXS, AUC, negative-stain EM (conformational and oligomeric change)", "conditions": "pre-incubated with 1 mM (SAXS, EM), pH 7.5, 5 mM MgCl2"}, "CtRoc-COR [4]": {"target": "T1, CtRoc-COR", "test": "SEC-SAXS (conformational change)", "conditions": "pre-incubated with 1 mM, pH 7.5, 5 mM MgCl2"}, "CtRoc-COR [5]": {"target": "T3, CtRoc-COR (Chlorobaculum tepidum, UniProt Q8KC98, S928C, form not given)", "T3 construct": "gene CT1526; Roc-COR domains, residues 412-946, N-terminal His-tag (pProEX), E. coli BL21(DE3); dimer nucleotide-free, about 65 kDa monomer", "T3 sequence (Q8KC98 entry or part of it S928C, form open)": "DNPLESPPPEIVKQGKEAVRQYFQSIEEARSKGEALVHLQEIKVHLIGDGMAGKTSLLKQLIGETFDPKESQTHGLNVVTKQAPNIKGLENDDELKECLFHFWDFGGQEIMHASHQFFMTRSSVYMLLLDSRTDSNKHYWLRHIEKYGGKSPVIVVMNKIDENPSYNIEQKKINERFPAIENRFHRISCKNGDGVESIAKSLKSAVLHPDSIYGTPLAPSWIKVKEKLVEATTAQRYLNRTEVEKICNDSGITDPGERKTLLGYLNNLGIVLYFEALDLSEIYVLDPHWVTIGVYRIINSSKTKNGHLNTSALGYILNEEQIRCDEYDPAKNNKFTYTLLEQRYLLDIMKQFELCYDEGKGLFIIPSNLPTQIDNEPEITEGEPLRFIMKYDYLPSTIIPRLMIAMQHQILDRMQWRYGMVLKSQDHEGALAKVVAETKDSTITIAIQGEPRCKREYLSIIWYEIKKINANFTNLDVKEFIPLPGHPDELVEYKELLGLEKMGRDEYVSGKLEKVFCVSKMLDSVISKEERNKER", "test": "stopped-flow Cy3/Cy5 FRET, monomerization", "conditions": "50 µM or 1 µM GTP, Cy3/Cy5-labelled protein, 25 °C"}}, "data": [{"smiles": "Nc1nc2c(ncn2[C@@H]2O[C@H](COP(=O)(O)OP(=O)(O)NP(=O)(O)O)[C@@H](O)[C@H]2O)c(=O)[nH]1", "note": "[GppNHp]", "values": [{"measurement": "SEC-SAXS, SEC-MALS, native MS, SV-AUC (oligomeric shift)", "setting": "CtRoc-COR [1]", "value": "the GTP mimic GppNHp induces monomerization in a concentration dependent manner"}, {"measurement": "SEC-SAXS, SEC-MALS, native MS, AUC, negative-stain EM (oligomeric shift)", "setting": "CtRoco [2]", "value": "As for CtRoc-COR this indicates that GppNHp induces monomerization"}]}, {"smiles": "Nc1nc2c(ncn2[C@@H]2O[C@H](COP(=O)(O)OP(=O)(O)O)[C@@H](O)[C@H]2O)c(=O)[nH]1", "note": "[GDP]", "values": [{"measurement": "SEC-SAXS, AUC, negative-stain EM (conformational and oligomeric change)", "setting": "CtRoco [3]", "value": "conformational changes occur in both the CtRoco GppNHp- and GDP-bound states"}, {"measurement": "SEC-SAXS (conformational change)", "setting": "CtRoc-COR [4]", "value": "when CtRoc-COR is saturated with either GDP or GppNHp conformational changes are taking place"}]}, {"smiles": "Nc1nc2c(ncn2[C@@H]2O[C@H](COP(=O)(O)OP(=O)(O)OP(=O)(O)O)[C@@H](O)[C@H]2O)c(=O)[nH]1", "note": "[GTP]", "values": [{"measurement": "stopped-flow Cy3/Cy5 FRET, monomerization", "setting": "CtRoc-COR [5]", "value": "a fast decrease in FRET signal is observed upon mixing the protein"}]}]}
